Patent US20010007020A1, “ANTIBODIES THAT BIND TO THE NIDOGEN-BINDING DOMAIN OF LAMININ, THEIR PRODUCTION AND USE” (HOECHST AKTIENGESELLSCHAFT, priority 1997, published 2001)

B1: nidogen: recombinantly produced human nidogen, 160 kDa glycoprotein (protein, UniProt P14543 29-1247, looked up)
Nidogen-1: LSRQELFPFGPGQGDLELEDGDDFVSPALELSGALRFYDRSDIDAVYVTTNGIIATSEPPAKESHPGLFPPTFGAVAPFLADLDTTDGLGKVYYREDLSPSITQRAAECVHRGFPEISFQPSSAVVVTWESVAPYQGPSRDPDQKGKRNTFQAVLASSDSSSYAIFLYPEDGLQFHTTFSKKENNQVPAVVAFSQGSVGFLWKSNGAYNIFANDRESVENLAKSSNSGQQGVWVFEIGSPATTNGVVPADVILGTEDGAEYDDEDEDYDLATTRLGLEDVGTTPFSYKALRRGGADTYSVPSVLSPRRAATERPLGPPTERTRSFQLAVETFHQQHPQVIDVDEVEETGVVFSYNTDSRQTCANNRHQCSVHAECRDYATGFCCSCVAGYTGNGRQCVAEGSPQRVNGKVKGRIFVGSSQVPIVFENTDLHSYVVMNHGRSYTAISTIPETVGYSLLPLAPVGGIIGWMFAVEQDGFKNGFSITGGEFTRQAEVTFVGHPGNLVIKQRFSGIDEHGHLTIDTELEGRVPQIPFGSSVHIEPYTELYHYSTSVITSSSTREYTVTEPERDGASPSRIYTYQWRQTITFQECVHDDSRPALPSTQQLSVDSVFVLYNQEEKILRYALSNSIGPVREGSPDALQNPCYIGTHGCDTNAACRPGPRTQFTCECSIGFRGDGRTCYDIDECSEQPSVCGSHTICNNHPGTFRCECVEGYQFSDEGTCVAVVDQRPINYCETGLHNCDIPQRAQCIYTGGSSYTCSCLPGFSGDGQACQDVDECQPSRCHPDAFCYNTPGSFTCQCKPGYQGDGFRCVPGEVEKTRCQHEREHILGAAGATDPQRPIPPGLFVPECDAHGHYAPTQCHGSTGYCWCVDRDGREVEGTRTRPGMTPPCLSTVAPPIHQGPAVPTAVIPLPPGTHLLFAQTGKIERLPLEGNTMRKTEAKAFLHVPAKVIIGLAFDCVDKMVYWTDITEPSIGRASLHGGEPTTIIRQDLGSPEGIAVDHLGRNIFWTDSNLDRIEVAKLDGTQRRVLFETDLVNPRGIVTDSVRGNLYWTDWNRDNPKIETSYMDGTNRRILVQDDLGLPNGLTFDAFSSQLCWVDAGTNRAECLNPSQPSRRKALEGLQYPFAVTSYGKNLYFTDWKMNSVVALDLAISKETDAFQPHKQTRLYGITTALSQCPQGHNYCSVNNGGCTHLCLATPGSRTCRCPDNTLGVDCIEQK

What was measured:
[1] = molecular target: laminin/nidogen binding (radioactively labeled nidogen to laminin P1-coated tubes); experiment: coated-tube inhibition assay, simultaneous inhibition; set-up: species or system human; details: simultaneous assay type
Method: (§1) The inhibitory activity of the affinity-purified antibodies can be identified by means of a coated-tube assay which measures the binding of radioactively labeled nidogen to (human placental) laminin P1-coated tubes in the presence of the antibodies.
(§2) Recombinantly produced human nidogen (35 μg, for description of the clone and culturing and purification conditions, see Mayer, U. et al. (1995) Eur. J. Biochem. 227:681-686) was dissolved in 250 μl of PBS, and 0.405 mCi (=15 Mbq) of Na iodide (^125I) solution (=1.55 μl, Nordion Europe), 10 μl of 0.5 M Na phosphate, pH 7.4, and 40 μg of chloramine T (N-chloro-4-toluenesulfonamide sodium salt, Merck) in 100 μl of 0.05 M Na phosphate, pH 7.4, were added to the solution. The reaction took place for 60 seconds at room temperature and was stopped by adding a solution of 40 μg of Na metabisulfite (Riedel-de-Haen) in 100 μl of 0.05 M Na phosphate, pH 7.4. This addition was made in at most 30 seconds and 900 μl of 1% BSA (Sigma) in PBS were then added to the mixture. Free radioactivity and excess salts were separated off by means of molecular sieve chromatography using a PD 10 column (Pharmacia). The iodinated nidogen, which was eluted in PBS, was pooled and diluted with 1% BSA/0.05 M Na phosphate/0.01% Na azide, pH 7.4, such that a concentration of 50 ng/ml was obtained. […]
Target sequence in this assay (P11047 773-934 limits assumed, one chain of several): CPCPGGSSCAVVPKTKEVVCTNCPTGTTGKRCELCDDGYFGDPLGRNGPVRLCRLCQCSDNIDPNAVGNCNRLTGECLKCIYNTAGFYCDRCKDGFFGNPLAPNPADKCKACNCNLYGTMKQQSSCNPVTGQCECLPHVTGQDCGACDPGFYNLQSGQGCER

[2] = molecular target: laminin/nidogen binding (radioactively labeled nidogen to laminin P1-coated tubes); experiment: coated-tube inhibition assay, sequential inhibition; set-up: species or system human
Method: as §1, §2
Inhibition assay using “laminin-mimetic” structures (sequential inhibition) 200 μl of iodinated nidogen (approx. 10 ng, approx. 40,000 counts per min) and 200 μl of the inhibitor (e.g. peptides which can be derived from the laminin γ1 III 4 domain) or standards (laminin γ1 III 3-5) were shaken in a reaction vessel at room temperature. […] Finally, the solution was tipped out and the tubes were washed twice with 1 ml of PBS/0.04% Tween 20, after which the bound radioactivity (nidogen) was measured in a gamma counter. The quantity of bound nidogen in the solutions containing inhibitor was related to that of the nidogen when no inhibitor was added. […]

laminin P1 = experiment: BIAcore binding kinetics on immobilized laminin P1; details: 20 μg/ml; matrix with 4000 RU laminin P1
Source text: Biospecific interactions can be monitored on-line using the BIAcore® system from Pharmacia Biosensor. The principle of the measurement is based on an optical phenomenon (surface plasmon resonance) which is affected by the mass which is bound on a gold film. Expressed in simple terms, the system is miniaturized affinity chromatography on a gold sensor surface. The quantity of specifically bound ligand can be depicted visually in the form of a resonance signal (Chaiken, I. et al. (1992) Anal. Biochem. 201:197-201; Karisson, R. et al. (1992) in: Structure of Antigens; (Ed.: van Regenmortel). pp. 127-148; CRC Press, Boca Raton, Fla.)
Laminin P1 was immobilized, at a concentration of 200 μg/ml in 10 mM Na acetate, pH 4.0, on the sensor chip in accordance with the instructions in the user manual. A matrix containing 4000 RU of bound laminin P1 is obtained. A double impulse of in each case 4 μl of 100 mM HCl can be carried out in order to regenerate the affinity matrix.
The fact that it was still not possible to observe any transition to the equilibrium state after 1400 seconds can be an expression of the fact that the specific peptide sequence of laminin P1 which is responsible for binding nidogen was readily available to the antibodies. The antibodies bound to this sequence irrespective of whether it was in the biologically active conformation or in a different conformation. […]

[3] = sequential assay type, read-out: IC50% inhibition of laminin/nidogen binding

Chain of laminin P1 (P11047 773-934 limits assumed): as the sequence (P11047 773-934 limits assumed, one chain of several) above

IC50 [1] | IC50 ([2]; in the assay described here, shortened incubation times, variant not stated, read-out: IC50%) | IC50 [2, 3] | bound amount at transition to the saturation phase (laminin P1) | Molecule
60 µM | 60 µM | 60 µM | – | DNIDPNAVGNL [(1), peptide used for immunization]
20 µM | – | 20 µM | – | DNIDPNAVGNLKCIYNTAGFYCDR [(2), peptide used for immunization]
– | – | – | 600 RU | B1
